Where “and” joins values, the source holds several entries; their conditions need not be identical. Identical values can stand only once.
Key:
[1] = test system: intracellular amastigotes of L. (V) panamensis; test: In vitro antileishmanial activity on intracellular amastigotes (GFP parasites, flow cytometry); type: cell-based, Leishmania (Viannia) panamensis; details: for inhibition at 20 µg/mL: U-937, 72 h, infected U-937 cells, read-out: Inhibition intracellular amastigotes growth (%)
[2] = In vitro cytotoxicity, MTT assay; type: cell-based; details: human
Experimental: (§1) Cytotoxic activity of the studied compounds was assessed in the human promonocytic U-937 cells (ATCC CRL-1593.2™) based on viability evaluated by the MTT (3-(4,5-dimethylthiazol-2-yl)-2,5-diphenyltetrazolium bromide) assay as described elsewhere (Taylor et al. [2011]). Briefly, U-937 cells grown in tissue flasks were harvested and washed with phosphate buffered saline (PBS) by centrifugation. Cells were counted and adjusted at 1 × 10^6 cells/mL of complete culture medium (RPMI-1640 supplemented with 10% Fetal Bovine Serum-FBS and 1% of antibiotics (100 ug/mL penicillin and 0.1 mg/mL streptomycin). One hundred µL of cell suspension were dispensed into each well of a 96-well cell-culture plate and then 100 µL of two-fold serial dilutions of the compounds (starting at 200 µg/mL) in complete RPMI 1640 medium were added. Plates were incubated at 37 °C, under 5% CO2 atmosphere during 72 h. Then, 10 µL of MTT solution (0.5 mg/mL) were added into each well, and plates were then incubated at 37 °C for 3 h. The formazan crystals were dissolved by adding 100 µL/well of dimethyl sulfoxide and 30 min incubation. Cell viability was determined according to the intensity of color (absorbance) registered as optical densities (O.D) obtained at 570 nm in a Varioskan™ Flash Multimode Reader-ThermoScientific, USA spectrophotometer. Cells cultured in absence of compounds were used as control of viability (negative control), while doxorrubicin was used as control for cytotoxic drugs. Non-specific absorbance was corrected by subtracting the O.D of the blank. Assays were conducted in two independent runs with three replicas per each concentration tested.
(§2) Cytotoxicity was determined according to cell growth (viability) and mortality percentages obtained for each isolated experiment (compounds, doxorubicin and culture medium). Results were expressed as 50 lethal concentrations (LC50), corresponding to the concentration necessary to eliminate 50% of cells, calculated by Probit analysis (Finney [1978]). Percentage of viability was calculated by Eq. 1, where the optical density (O.D) of control corresponds to 100% of viability (cell growth).1 %Mortality=1-O.D Exposed cells/O.D Control cells×100

CHO-K1 cells = test system: CHO-K1 cells; parameters: method as in Herrera et al. 2018; details: previous study; ref Herrera et al. 2018; cited from earlier work
SW480 cells = test system: SW480 cells; parameters: method as in Herrera et al. 2018; details: previous study; ref Herrera et al. 2018; cited from earlier work
[3] = test system: intracellular amastigotes of L. (V) panamensis; test: In vitro antileishmanial activity on intracellular amastigotes (GFP parasites, flow cytometry); type: cell-based, Leishmania (Viannia) panamensis; details: for EC50: read-out: Anti-leishmanial activity on intracellular amastigotes EC50 (converted); for SI (selectivity index = LC50/EC50): U-937 LC50 / amastigote EC50
Experimental: The activity of compounds was evaluated on intracellular amastigotes of L. (V) panamensis transfected with the green fluorescent protein gene (MHOM/CO/87/UA140-EGFP) (Pulido et al. [2012]). The effect of each compound was determined according to the inhibition of the infection evidenced by both, decrease of the infected cells and decrease of intracellular parasite amount. Briefly, U-937 human cells at a concentration of 3 × 10^5 cells/mL in RPMI 1640 containing 0.1 μg/mL of phorbol-12-myristate-13-acetate (PMA) were dispensed into each one of a 24-well cell culture plate and then infected with 5 day-old promastigotes in a 15:1 parasites per cell ratio. Plates were incubated at 34 °C, 5% CO2 during 3 h and cells were washed two times with PBS to eliminate non internalized parasites. One mL of fresh complete RPMI 1640 medium supplemented with 10% FBS and 1% antibiotics was added into each well, cells were incubated again to guarantee multiplication of intracellular parasites. After 24 h of infection, culture medium was replaced by fresh culture medium containing each compound at 50–6.12 and 1.56 μg/mL and plates were incubated at 37 °C, 5% CO2. After 72 h, inhibition of the infection was determined. For this, cells were removed from the bottom plate with a trypsin/EDTA (250 mg) solution; recovered cells were centrifuged at 1100 rpm during 10 min at 4 °C, the supernatant was discarded and cells were washed with 1 mL of cold PBS and centrifuged at 1100 rpm during 10 min at 4 °C. The supernatant was discarded and cells were suspended in 500 μL of PBS and analyzed by flow cytometry (FC 500MPL, Cytomics, Brea, CA, US). All determinations for each compound including standard drugs were carried out by triplicate, in two independent experiments. Activity of the tested compounds was carried out in parallel with infection progress in culture medium alone and in culture medium with amphotericin B as antileishmanial drugs (positive controls).
Antileishmanial activity was determined according to percentage of infected cells and parasite amount obtained for each experimental condition by flow cytometer. The percentage of infected cells was determined as the number of positive events by green fluorescence (parasites) in y-axis and Forward Scatte in x-axis. Then, the parasitic load in those infected cells was determined by a histogram of the mean fluorescence intensity (MFI) of those fluorescent parasites (Pulido et al. [2012]).
Parasitemia inhibition was calculated by Eq. 2, where the MFI of control corresponds to 100% of parasitemia. In turn, inhibition percentage corresponds to 100% Parasitemia.

[4] = test system: promastigote forms of L. amazonensis; parameters: method as in Rosa et al. 2017; details: ref Rosa et al. 2017; read-out: IC50 against promastigote forms of L. amazonensis; cited from earlier work
[5] = test system: amastigote forms of L. amazonensis; parameters: method as in Rosa et al. 2017; details: ref Rosa et al. 2017; read-out: IC50 against amastigote forms of L. amazonensis; cited from earlier work
[6] = test system: intracellular amastigotes of L. donovani; parameters: method as in Pierson et al. 2010; details: ref Pierson et al. 2010; cited from earlier work
U-937 cells = test: In vitro cytotoxicity, MTT assay; type: cell-based; details: 72 h, MTT
Experimental: as §1, §2

[7] = test system: axenic amastigote forms of L. panamensis; parameters: method as in Arango et al. 2010; details: ref Arango et al. 2010; cited from earlier work

With `CCCCCCCCOc1ccc2c(C)c(/C=C/c3cc(OC)c(O)c(OC)c3)c(=O)oc2c1` [Compound 8] the inhibition of growth at 1 µg/mL ([1]; dose used 1.0 µg/ml, 72 h) was 0% and the CC50 at 72 h [2] was 1 µg/mL and 2.4 µM.

For `CCCCCCCCOc1ccc2c(C)c(/C=C/c3ccc(O)c(OC)c3)c(=O)oc2c1` [Compound 6], the inhibition at 20 µg/mL [1] is given as over 83%, the IC50 (CHO-K1 cells) is given as 69.8 µM and the CC50 at 72 h [2] is given as 19.7 µg/mL and 51.8 µM. For the same compound, the IC50 (SW480 cells) was 26.1 µM, the EC50 ([3]; 72 h, Probit) was 15.4 µg/mL and 40.5 µM and the “SI (selectivity index = LC50/EC50)” value [3] was 1.2. For the same compound, the “Inhibition intracellular amastigotes growth (%)” value ([3]; at 20 µg/ml, 72 h, infected U-937 cells) was 83.5 ± 5.0% and the IC50 ([3]; read-out: IC50 against L. (V.) panamensis amastigotes (abstract)) was 40.5 µM.

With `CCCCCCCCOc1ccc2c(C)c(/C=C/c3ccc(OC)c(OC)c3)c(=O)oc2c1` [Compound 4] the inhibition at 20 µg/mL [1] was 32.5 ± 0.8% and the CC50 at 72 h [2] was 26 µg/mL and 66 µM.

In the case of `CCCCCCCCOc1ccc2c(C)c(/C=C/c3ccc(OC)cc3OC)c(=O)oc2c1` [Compound 5], the inhibition at 20 µg/mL [1] is reported as 3.7 ± 0.8% and the CC50 at 72 h [2] is reported as > 200 µg/mL and > 507 µM.

For `CCCCCCCCOc1ccc2c(C)c(/C=C/c3cc(OC)ccc3OC)c(=O)oc2c1` [Compound 7], the inhibition at 20 µg/mL [1] was 7.1 ± 1.5% and the CC50 at 72 h [2] was > 200 µg/mL and > 507 µM.

In the case of `CCCCCCCCOc1ccc2c(C)c(/C=C/c3ccc4c(c3)OCO4)c(=O)oc2c1` [Compound 9], the inhibition at 20 µg/mL [1] is reported as 0% and the CC50 at 72 h [2] is reported as > 200 µg/mL and > 529 µM.

For `CCCCCCCCOc1ccc2c(C)c(/C=C/c3ccc(OC)cc3)c(=O)oc2c1` [Compound 3], the inhibition at 20 µg/mL [1] was 0% and the CC50 at 72 h [2] was > 200 µg/mL and > 549 µM.

For `CC(=O)OC[C@H]1O[C@@H](Oc2ccc3c(-c4ccccc4)cc(=O)oc3c2)[C@H](OC(C)=O)[C@@H](OC(C)=O)[C@@H]1OC(C)=O` [E], the IC50 [4] is given as 10 µM and the IC50 [5] is given as 34.9 µM.

For `COc1ccc(-c2cc(=O)oc3cc(OC)c(OC)cc23)cc1OC` [F], the IC50 [6] is listed as 1.1 µM.

For `C[C@@H]1[C@H](O)[C@@H](C)/C=C/C=C/C=C/C=C/C=C/C=C/C=C/[C@H](O[C@@H]2O[C@H](C)[C@@H](O)[C@H](N)[C@@H]2O)C[C@@H]2O[C@](O)(C[C@@H](O)C[C@@H](O)[C@H](O)CC[C@@H](O)C[C@@H](O)CC(=O)O[C@H]1C)C[C@H](O)[C@H]2C(=O)O` [Amphotericin B, reference compound], the inhibition of growth at 0.05 µg/mL ([1]; dose used 0.05 µg/ml, 72 h) was 62.7 ± 1.4%, the CC50 at 72 h [2] was 36.1 µg/mL and 39.1 µM and the EC50 ([3]; 72 h, Probit) was 0.05 µg/mL and 50 nM. For the same compound, the “SI (selectivity index = LC50/EC50)” value [3] was 722.

With Meglumine antimoniate the “Cytotoxicity on U-937 cells LC50” value (U-937 cells) was 416.4 ± 66.6 µg/mL, the CC50 (U-937 cells; read-out: Cytotoxicity on U-937 cells LC50 (converted)) was 1140 µM and the “Inhibition intracellular amastigotes growth (%)” value ([3]; 72 h) was 79.4 ± 2.1^ g %. The “Anti-leishmanial activity on intracellular amastigotes EC50” value ([3]; 72 h, Probit) was 9.4 ± 2.1 µg/mL and the EC50 ([3]; 72 h, Probit) was 25.7 µM.

For `C=C(C)[C@H]1O[C@@H]1c1c(OC[C@H]2OC2(C)C)ccc2ccc(=O)oc12` (relative stereo) [B], the “EC50 against axenic amastigote forms of L. panamensis” value (from here on “EC50 against axenic amastigote forms”) [7] is listed as 9.9 µg/mL.

In the case of `C=C(C)C1OC1c1c(OC)ccc2ccc(=O)oc12` (centres unmarked) [D], the “EC50 against axenic amastigote forms” value [7] is given as 14.1 µg/mL.

For `COc1ccc2ccc(=O)oc2c1-c1cocc1C` [C], the “EC50 against axenic amastigote forms” value [7] is given as 10.5 µg/mL.

Source: paper PMC10908709, “3-styrylcoumarin scaffold-based derivatives as a new approach for leishmaniasis intervention: biological and molecular modeling studies” (Journal of Parasitic Diseases: Official Organ of the Indian …, 2024)
